# Reference: article PMC5053573, “Structure-Based Design of Tetrahydroisoquinoline-7-carboxamides as Selective Discoidin Domain Receptor 1 (DDR1) Inhibitors” (Journal of Medicinal Chemistry, 2016)
# Legend:
# Experiment in all cases: biochemical
# Conditions in all cases: read-out: %Ctrl @ 1000nM
# KIT(V559D) = KIT(V559D) (Homo sapiens, UniProt P10721, V559D)
# MEK4 = molecular target: T1, MEK4 (Homo sapiens, UniProt P45985)
# T1 construct: gene MAP2K4
# [1] = molecular target: RPS6KA5(Kin.Dom.2-C-terminal) (Homo sapiens, UniProt O75582)
# EPHB4 = EPHB4 (Homo sapiens, UniProt P54760)
# HIPK2 = HIPK2 (Homo sapiens, UniProt Q9H2X6)
# FLT3(ITD,D835V) = FLT3(ITD,D835V) (Homo sapiens, UniProt P36888, D835V/ITD)
# FGFR1 = FGFR1 (Homo sapiens, UniProt P11362)
# PAK7 = molecular target: T2, PAK7 (Homo sapiens, UniProt Q9P286)
# T2 construct: gene PAK5
# BRAF = BRAF (Homo sapiens, UniProt P15056)
# EGFR(L747-T751del,Sins) = EGFR(L747-T751del,Sins) (Homo sapiens, UniProt P00533, DEL747-750/T751S)
# PYK2 = molecular target: T3, PYK2 (Homo sapiens, UniProt Q14289)
# T3 construct: gene PTK2B
# DMPK = DMPK (Homo sapiens, UniProt Q09013)
# CDC2L2 = molecular target: T4, CDC2L2 (Homo sapiens, UniProt Q9UQ88)
# T4 construct: gene CDK11A
# EPHA6 = EPHA6 (Homo sapiens, UniProt Q9UF33)
# SLK = SLK (Homo sapiens, UniProt Q9H2G2)
# PRKCE = PRKCE (Homo sapiens, UniProt Q02156)
# PAK3 = PAK3 (Homo sapiens, UniProt O75914)
# GSK3B = GSK3B (Homo sapiens, UniProt P49841)
# SRPK1 = SRPK1 (Homo sapiens, UniProt Q96SB4)
# RIOK1 = RIOK1 (Homo sapiens, UniProt Q9BRS2)
# RIPK1 = RIPK1 (Homo sapiens, UniProt Q13546)
# CDKL3 = CDKL3 (Homo sapiens, UniProt Q8IVW4)
# PKAC-beta = molecular target: T5, PKAC-beta (Homo sapiens, UniProt P22694)
# T5 construct: gene PRKACB
# DAPK1 = DAPK1 (Homo sapiens, UniProt P53355)
# MAPKAPK5 = MAPKAPK5 (Homo sapiens, UniProt Q8IW41)
# PHKG2 = PHKG2 (Homo sapiens, UniProt P15735)
# MST1R = MST1R (Homo sapiens, UniProt Q04912)
# CAMK1D = CAMK1D (Homo sapiens, UniProt Q8IU85)
# IKK-alpha = molecular target: T6, IKK-alpha (Homo sapiens, UniProt O15111)
# T6 construct: gene CHUK
# FLT3(K663Q) = FLT3(K663Q) (Homo sapiens, UniProt P36888, K663Q)
# ABL2 = ABL2 (Homo sapiens, UniProt P42684)
# MAP4K5 = MAP4K5 (Homo sapiens, UniProt Q9Y4K4)
# ASK1 = molecular target: T7, ASK1 (Homo sapiens, UniProt Q99683)
# T7 construct: gene MAP3K5
# AKT3 = AKT3 (Homo sapiens, UniProt Q9Y243)
# PCTK1 = molecular target: T8, PCTK1 (Homo sapiens, UniProt Q00536)
# T8 construct: gene CDK16
# EPHB4, sequence (P54760 whole entry): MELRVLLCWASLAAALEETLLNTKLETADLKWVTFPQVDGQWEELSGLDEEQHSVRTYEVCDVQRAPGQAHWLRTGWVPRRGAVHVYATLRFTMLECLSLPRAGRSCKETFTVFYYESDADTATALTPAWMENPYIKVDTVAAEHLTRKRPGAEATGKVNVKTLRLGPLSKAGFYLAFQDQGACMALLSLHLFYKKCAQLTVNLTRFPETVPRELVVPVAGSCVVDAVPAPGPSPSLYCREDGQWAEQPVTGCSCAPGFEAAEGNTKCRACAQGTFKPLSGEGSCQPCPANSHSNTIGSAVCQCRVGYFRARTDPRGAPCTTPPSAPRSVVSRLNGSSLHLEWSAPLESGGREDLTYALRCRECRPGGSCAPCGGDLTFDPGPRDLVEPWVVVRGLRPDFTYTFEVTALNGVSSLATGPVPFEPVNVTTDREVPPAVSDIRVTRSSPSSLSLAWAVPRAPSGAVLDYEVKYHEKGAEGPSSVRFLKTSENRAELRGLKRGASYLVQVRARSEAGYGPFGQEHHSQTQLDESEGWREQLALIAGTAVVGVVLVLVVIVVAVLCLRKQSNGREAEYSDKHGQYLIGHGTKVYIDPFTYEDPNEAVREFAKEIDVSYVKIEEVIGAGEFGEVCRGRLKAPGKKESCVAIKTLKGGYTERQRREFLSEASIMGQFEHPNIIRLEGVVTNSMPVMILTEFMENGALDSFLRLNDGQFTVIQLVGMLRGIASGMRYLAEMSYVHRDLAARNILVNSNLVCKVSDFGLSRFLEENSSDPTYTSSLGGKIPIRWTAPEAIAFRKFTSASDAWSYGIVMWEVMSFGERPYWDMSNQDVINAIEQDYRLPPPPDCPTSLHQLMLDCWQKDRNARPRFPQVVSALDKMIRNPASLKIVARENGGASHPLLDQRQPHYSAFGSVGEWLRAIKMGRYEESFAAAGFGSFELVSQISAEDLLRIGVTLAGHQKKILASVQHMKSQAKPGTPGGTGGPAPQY
# CDKL3, sequence (Q8IVW4 whole entry): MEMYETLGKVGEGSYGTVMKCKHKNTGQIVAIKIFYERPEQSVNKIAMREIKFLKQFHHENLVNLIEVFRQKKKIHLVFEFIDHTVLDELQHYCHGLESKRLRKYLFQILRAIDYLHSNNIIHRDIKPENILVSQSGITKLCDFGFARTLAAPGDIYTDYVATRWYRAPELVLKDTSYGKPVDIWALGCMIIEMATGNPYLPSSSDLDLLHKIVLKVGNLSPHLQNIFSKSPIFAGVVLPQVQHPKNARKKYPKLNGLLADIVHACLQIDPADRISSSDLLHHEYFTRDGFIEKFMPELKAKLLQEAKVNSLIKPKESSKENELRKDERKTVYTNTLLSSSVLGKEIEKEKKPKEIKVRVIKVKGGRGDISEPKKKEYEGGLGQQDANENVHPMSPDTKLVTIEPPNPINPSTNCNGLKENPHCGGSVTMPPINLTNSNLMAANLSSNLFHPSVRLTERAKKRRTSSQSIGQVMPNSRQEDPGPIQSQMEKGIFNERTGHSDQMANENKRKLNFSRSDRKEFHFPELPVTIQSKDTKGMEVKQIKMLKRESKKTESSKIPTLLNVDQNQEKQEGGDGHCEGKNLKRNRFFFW
# T7 sequence (Q99683 whole entry): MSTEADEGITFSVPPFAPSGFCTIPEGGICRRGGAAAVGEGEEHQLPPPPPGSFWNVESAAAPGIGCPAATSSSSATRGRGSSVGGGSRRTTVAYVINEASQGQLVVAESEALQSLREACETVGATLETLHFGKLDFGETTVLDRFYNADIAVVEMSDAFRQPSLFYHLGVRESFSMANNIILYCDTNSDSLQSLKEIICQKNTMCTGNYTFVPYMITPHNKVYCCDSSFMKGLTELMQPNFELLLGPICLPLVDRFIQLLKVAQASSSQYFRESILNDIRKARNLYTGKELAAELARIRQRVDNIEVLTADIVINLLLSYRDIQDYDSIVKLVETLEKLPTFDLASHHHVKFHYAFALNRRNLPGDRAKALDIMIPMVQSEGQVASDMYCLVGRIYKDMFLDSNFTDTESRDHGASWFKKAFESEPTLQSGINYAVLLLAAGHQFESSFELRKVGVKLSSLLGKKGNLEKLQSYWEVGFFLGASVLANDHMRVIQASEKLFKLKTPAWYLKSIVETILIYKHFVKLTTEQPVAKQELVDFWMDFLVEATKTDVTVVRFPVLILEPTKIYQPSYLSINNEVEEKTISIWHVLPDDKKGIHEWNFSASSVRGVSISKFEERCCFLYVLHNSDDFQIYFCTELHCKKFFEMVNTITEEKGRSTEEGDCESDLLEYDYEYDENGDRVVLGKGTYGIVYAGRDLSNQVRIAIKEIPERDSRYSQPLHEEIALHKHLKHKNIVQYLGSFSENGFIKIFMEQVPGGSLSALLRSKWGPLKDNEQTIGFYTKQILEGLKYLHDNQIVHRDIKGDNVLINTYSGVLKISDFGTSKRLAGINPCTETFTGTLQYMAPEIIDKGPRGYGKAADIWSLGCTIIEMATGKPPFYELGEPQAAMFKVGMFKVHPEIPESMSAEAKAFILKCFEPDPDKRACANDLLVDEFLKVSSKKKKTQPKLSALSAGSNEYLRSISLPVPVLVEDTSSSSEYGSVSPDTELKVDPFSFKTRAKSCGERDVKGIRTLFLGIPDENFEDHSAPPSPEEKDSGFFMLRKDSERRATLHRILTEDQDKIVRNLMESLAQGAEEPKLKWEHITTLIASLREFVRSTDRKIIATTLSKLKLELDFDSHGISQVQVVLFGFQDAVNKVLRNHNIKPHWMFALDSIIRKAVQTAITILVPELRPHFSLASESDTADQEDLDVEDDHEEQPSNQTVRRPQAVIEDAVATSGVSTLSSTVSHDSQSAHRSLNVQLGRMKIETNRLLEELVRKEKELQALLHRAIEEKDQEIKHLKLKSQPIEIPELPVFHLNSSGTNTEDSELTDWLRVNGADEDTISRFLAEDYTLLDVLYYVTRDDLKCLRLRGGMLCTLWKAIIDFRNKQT
# DAPK1, sequence (P53355 whole entry): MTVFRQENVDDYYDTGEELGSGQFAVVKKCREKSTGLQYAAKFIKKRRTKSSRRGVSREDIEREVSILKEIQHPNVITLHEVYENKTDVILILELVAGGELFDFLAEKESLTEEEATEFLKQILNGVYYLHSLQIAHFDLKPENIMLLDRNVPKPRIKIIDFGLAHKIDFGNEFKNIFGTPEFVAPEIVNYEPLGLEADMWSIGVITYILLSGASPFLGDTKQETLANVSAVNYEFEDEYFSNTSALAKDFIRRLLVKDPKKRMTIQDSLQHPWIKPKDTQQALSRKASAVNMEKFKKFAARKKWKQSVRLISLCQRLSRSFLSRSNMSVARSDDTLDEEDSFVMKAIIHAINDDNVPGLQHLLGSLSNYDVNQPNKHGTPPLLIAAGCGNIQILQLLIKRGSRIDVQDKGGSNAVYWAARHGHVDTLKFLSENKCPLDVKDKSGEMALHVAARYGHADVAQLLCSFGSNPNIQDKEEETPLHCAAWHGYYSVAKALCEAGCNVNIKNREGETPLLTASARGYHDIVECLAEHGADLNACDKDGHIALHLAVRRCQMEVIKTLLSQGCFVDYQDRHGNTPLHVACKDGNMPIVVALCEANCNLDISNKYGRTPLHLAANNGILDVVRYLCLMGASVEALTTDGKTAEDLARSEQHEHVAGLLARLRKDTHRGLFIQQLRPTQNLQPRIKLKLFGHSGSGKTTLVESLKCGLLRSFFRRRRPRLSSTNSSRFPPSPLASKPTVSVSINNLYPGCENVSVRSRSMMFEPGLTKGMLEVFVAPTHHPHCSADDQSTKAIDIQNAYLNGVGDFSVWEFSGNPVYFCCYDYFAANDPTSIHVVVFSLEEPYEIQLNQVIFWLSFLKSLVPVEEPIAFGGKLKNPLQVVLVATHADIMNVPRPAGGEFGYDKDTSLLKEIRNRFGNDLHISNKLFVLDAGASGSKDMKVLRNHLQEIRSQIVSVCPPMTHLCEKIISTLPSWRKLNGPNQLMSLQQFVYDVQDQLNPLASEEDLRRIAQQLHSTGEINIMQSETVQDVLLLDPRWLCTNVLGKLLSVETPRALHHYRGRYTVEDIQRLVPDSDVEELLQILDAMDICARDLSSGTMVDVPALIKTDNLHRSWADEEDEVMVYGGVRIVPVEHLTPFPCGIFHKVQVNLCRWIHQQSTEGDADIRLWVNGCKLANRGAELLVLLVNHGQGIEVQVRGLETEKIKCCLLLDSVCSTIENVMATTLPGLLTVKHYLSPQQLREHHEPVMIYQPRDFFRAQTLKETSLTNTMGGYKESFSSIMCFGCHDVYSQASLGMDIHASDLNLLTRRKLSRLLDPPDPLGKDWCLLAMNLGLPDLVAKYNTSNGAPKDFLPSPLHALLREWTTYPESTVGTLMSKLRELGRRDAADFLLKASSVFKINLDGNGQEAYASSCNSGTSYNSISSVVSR
# PAK3, sequence (O75914 whole entry): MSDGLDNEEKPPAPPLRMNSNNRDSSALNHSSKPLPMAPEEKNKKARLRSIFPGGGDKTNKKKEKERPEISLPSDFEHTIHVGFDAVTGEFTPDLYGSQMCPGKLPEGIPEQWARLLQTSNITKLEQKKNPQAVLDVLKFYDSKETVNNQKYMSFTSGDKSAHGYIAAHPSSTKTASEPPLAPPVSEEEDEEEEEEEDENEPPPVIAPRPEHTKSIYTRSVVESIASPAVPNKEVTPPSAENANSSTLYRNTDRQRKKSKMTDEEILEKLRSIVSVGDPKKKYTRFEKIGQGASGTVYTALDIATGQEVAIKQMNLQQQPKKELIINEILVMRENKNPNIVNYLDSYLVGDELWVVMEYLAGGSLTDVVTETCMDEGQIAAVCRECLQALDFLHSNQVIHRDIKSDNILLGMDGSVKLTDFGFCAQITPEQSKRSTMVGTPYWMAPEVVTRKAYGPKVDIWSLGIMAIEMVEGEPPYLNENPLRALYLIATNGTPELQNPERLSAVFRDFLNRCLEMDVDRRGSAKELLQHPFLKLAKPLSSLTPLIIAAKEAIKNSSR
smiles,measurement,setting,value
Cc1cn(-c2cc(NC(=O)c3ccc4c(c3)CN(c3cncnc3)C[C@@H]4C)cc(C(F)(F)F)c2)cn1 [Compound 6j],remaining activity at 1 µM,KIT(V559D),80%
same,remaining activity at 1 µM,MEK4,96%
same,remaining activity at 1 µM,[1],100%
same,remaining activity at 1 µM,EPHB4,76%
same,remaining activity at 1 µM,HIPK2,100%
same,remaining activity at 1 µM,"FLT3(ITD,D835V)",23%
same,remaining activity at 1 µM,FGFR1,79%
same,remaining activity at 1 µM,PAK7,98%
same,remaining activity at 1 µM,BRAF,96%
same,remaining activity at 1 µM,"EGFR(L747-T751del,Sins)",97%
same,remaining activity at 1 µM,PYK2,93%
same,remaining activity at 1 µM,DMPK,100%
same,remaining activity at 1 µM,CDC2L2,97%
same,remaining activity at 1 µM,EPHA6,58%
same,remaining activity at 1 µM,SLK,71%
same,remaining activity at 1 µM,PRKCE,100%
same,remaining activity at 1 µM,PAK3,79%
same,remaining activity at 1 µM,GSK3B,94%
same,remaining activity at 1 µM,SRPK1,100%
same,remaining activity at 1 µM,RIOK1,100%
same,remaining activity at 1 µM,RIPK1,98%
same,remaining activity at 1 µM,CDKL3,100%
same,remaining activity at 1 µM,PKAC-beta,97%
same,remaining activity at 1 µM,DAPK1,100%
same,remaining activity at 1 µM,MAPKAPK5,100%
same,remaining activity at 1 µM,PHKG2,79%
same,remaining activity at 1 µM,MST1R,97%
same,remaining activity at 1 µM,CAMK1D,71%
same,remaining activity at 1 µM,IKK-alpha,100%
same,remaining activity at 1 µM,FLT3(K663Q),62%
same,remaining activity at 1 µM,ABL2,46%
same,remaining activity at 1 µM,MAP4K5,95%
same,remaining activity at 1 µM,ASK1,92%
same,remaining activity at 1 µM,AKT3,96%
same,remaining activity at 1 µM,PCTK1,100%
